From PMC12206033, “Selective inhibition of TRPV3 channel by natural rosmarinic acid and its analogs for alleviation of skin lesions through downregulation of NF-κB pathway” (The Journal of Biological Chemistry, 2025)

Experiments:
hTRPV3 [1] = target: T1, hTRPV3 (Homo sapiens, UniProt Q8NET8); test: whole-cell patch-clamp of hTRPV3 currents in HEK293T cells activated by 2-APB; assay type: cell-based; details: for inhibition at 50 µM: HEK-293T, compound 50 μM, agonist 2-APB 50 μM, Fig. 3I, n = 4-5, read-out: inhibition of hTRPV3 currents; for IC50: evoked by 2-APB 50 μM, outward currents at +80 mV, HEK293T, Fig. 3J, n = 5-7, read-out: IC50, inhibition of whole-cell hTRPV3 currents
T1 construct: expressed in transfected cells; host or cells: HEK293T
T1 sequence (Q8NET8 1-790): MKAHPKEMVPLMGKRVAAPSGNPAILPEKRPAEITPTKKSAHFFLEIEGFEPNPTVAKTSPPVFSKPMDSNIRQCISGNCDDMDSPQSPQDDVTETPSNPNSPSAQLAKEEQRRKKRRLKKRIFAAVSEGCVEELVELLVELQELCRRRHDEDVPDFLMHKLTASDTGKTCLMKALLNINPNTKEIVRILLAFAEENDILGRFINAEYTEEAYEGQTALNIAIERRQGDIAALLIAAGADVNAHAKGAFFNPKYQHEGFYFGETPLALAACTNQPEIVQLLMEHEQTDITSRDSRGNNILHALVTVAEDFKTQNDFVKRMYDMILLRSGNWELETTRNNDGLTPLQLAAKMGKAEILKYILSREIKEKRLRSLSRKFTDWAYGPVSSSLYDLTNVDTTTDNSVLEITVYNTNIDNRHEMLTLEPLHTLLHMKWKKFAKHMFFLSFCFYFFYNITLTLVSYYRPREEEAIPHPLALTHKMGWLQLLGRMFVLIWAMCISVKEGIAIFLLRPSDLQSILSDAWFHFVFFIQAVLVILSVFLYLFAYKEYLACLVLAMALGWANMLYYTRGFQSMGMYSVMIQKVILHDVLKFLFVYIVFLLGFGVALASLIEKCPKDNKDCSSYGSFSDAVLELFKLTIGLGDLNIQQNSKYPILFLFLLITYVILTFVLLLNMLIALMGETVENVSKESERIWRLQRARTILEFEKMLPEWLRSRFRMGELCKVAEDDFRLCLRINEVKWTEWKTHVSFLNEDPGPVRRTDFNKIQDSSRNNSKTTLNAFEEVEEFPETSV
Method: (§1) HEK293T cell line was obtained from the Cell Resource Center, Peking Union Medical College. HEK293T cells were maintained in Dulbecco’s modified Eagle’s medium (DMEM, Gibco) supplemented with 10% fetal bovine serum at 37 °C with 5% CO2. HEK293T cells were seeded onto glass coverslips 1 day in advance and transiently transfected with […] complementary deoxyribonucleic acids of human TRPV3 (hTRPV3, accession number NM_145068.4), hTRPV1 (accession number NM_080704.3), mTRPV2 (accession number NM_011706.2), hTRPV4 (accession number NM_021625.5), hTRPA1 (accession number NM_007332.3), and hTRPM8 (accession number NM_024080.5) through Lipofectamine 2000 (Invitrogen) following the manufacture’s protocol. The next day, determine the plasmid transfection status by observing green fluorescence based on expression of enhanced GFP as an indicator. All WT or mutant hTRPV3 complementary deoxyribonucleic acid plasmids were confirmed by DNA sequencing. When conducting experiments on HEK293T cells transfected with G573S point mutant TRPV3 plasmid, we replaced culture medium with or without compounds after 4 h of transfection and then observed green fluorescence of HEK293T cell after 10 h. As for the relative fluorescence intensity, we convert the image to 8 bit grayscale using ImageJ (Https://imagej.net/software/fiji/downloads) and set an appropriate threshold value to reduce background noise and enhance the image contrast.
(§2) All patch-clamp recordings were conducted 16 to 24 h after transfection using an EPC10 amplifier powered by PatchMaster software (HEKA) (https://www.heka.com/downloads/downloads_main.html#down_patchmaster) at room temperature. The borosilicate glass pipettes were pulled using a DMZ universal electrode puller (Zeitz-Instruments GmbH) to achieve the resistances of three to 5 MΩ (for whole-cell recordings) or five to 9 MΩ (for inside-out patch recordings). Currents were recorded at a potential ramp from −100 mV to +100 mV for 1000 ms with 1000-ms intervals (for whole-cell recordings) or a persistent potential of −60 mV (inside-out patch recordings). Both pipette solution and bath solution contained (in mM): 130 NaCl, 3 Hepes, and 0.2 EDTA (pH = 7.2–7.4). All recording data were analyzed using Igor Pro (Wave-metrics) (https://www.wavemetrics.com/order/order_igordownloads.htm) and Origin 8.6 (Origin Lab) (https://www.originlab.com/doc/zh/Quick-Help/Download-Installer).

[2] = tested on: HEK293T cells expressing hTRPV3; test: Hoechst 33342/propidium iodide double staining cell death assay; assay type: cell-based
Method: For cell death assay, HEK293T cells transfected with hTRPV3 were seeded in 6-well plates and randomly divided into different groups. TRPV3 and NF-κB inhibitors were added 1 h before the addition of Car. After administration of Car for 1 h, cell death was detected using Hoechst 33342/propidium iodide Double Stain Kit (Solarbio). After staining, cells were resuspended with PBS buffer. Five random view images in each group were taken under a microscope (Eclipse Ti, Nikon) and counted using ImageJ software (National Institutes of Health).

[3] = tested on: HEK293T cells expressing G573S-TRPV3; test: green fluorescence of live HEK293T cells transfected with gain-of-function mutant GFP-TRPV3-G573S; assay type: cell-based, human; details: compound 20 μM
Method: as §1, with “All WT or mutant hTRPV3 complementary deoxyribonucleic acid plasmids were confirmed by DNA sequencing.” left out

[4] = tested on: Car-induced ear swelling and dorsal skin inflammation in mice; test: mouse model of ear swelling and dorsal skin inflammation induced by skin sensitizer Car (3%); assay type: in vivo
From the text: Adult C57BL/6J mice (aged 6–8 weeks, weighing 20 ± 2 g) were purchased from the Beijing Vital River Laboratory Animal Technology Co. Ltd. TRPV3-KO mice were purchased from Cyagen Biosciences Inc. All mice were housed in plastic cages with natural poplar wood bedding materials, accommodating three to five mice per cage. The housing environment was maintained at a controlled room temperature of (23 ± 2) °C and humidity of (50 ± 5) %, with 12-h light/dark cycle (lights on at 7:00 AM and off at 7:00 PM). Mice had free access to food and water. All animal test protocols were approved by the Institutional Animal Care and Use Committee of Qingdao University Health Science Center and were conducted in accordance with institutional and national guidelines for the use and care of animals in experiments. All mice were anesthetized with isoflurane (1%–1.5%) using an isoflurane gas anesthesia device and were euthanized under anesthesia.
(§3) Skin sensitizer Car was dissolved in saline solution containing 30% ethanol. The dorsal skin or ear of mice was swabbed with 3% Car for four consecutive days. To investigate the effects of ROSA, it was diluted to concentration of 0.1/1/10 mM with saline and topically applied on the ear and dorsal skin once a day for 4 days. The control group only received swabs with the solvent.

NF-κB p-P65 = details: no reference given; read-out: IC50 of NF-κB p-P65 inhibitor; cited from earlier work
hTRPV3 [5] = target: T1, hTRPV3; test: single-channel inside-out patch recordings of hTRPV3 in HEK293T cells; assay type: cell-based; details: 2-APB 50 μM or Car 300 μM alone, n = 5
Method: as §1, with “All WT or mutant hTRPV3 complementary deoxyribonucleic acid plasmids were confirmed by DNA sequencing. When conducting experiments on HEK293T cells transfected with G573S point mutant TRPV3 plasmid, we replaced culture medium with or without compounds after 4 h of transfection and then observed green fluorescence of HEK293T cell after 10 h.” left out
as §2

[6] = CCK-8 cell viability assay; assay type: cell-based; details: human, HEK293T cells expressing hTRPV3, Car 300 μM for 1 h, read-out: cell viability rate, Car alone
Method: For cell viability assay, hTRPV3-HEK293T cells were seeded in 96-well plates for 12 to 16 h before exposed to Car in DMEM containing 2% fetal bovine serum for 1 h. TRPV3 and NF-κB inhibitors were added 1 h before the addition of Car. After removing the medium containing chemical compounds, hTRPV3-HEK293T cells were incubated with DMEM containing 10% CCK-8 (TargetMol) for 1 h. Cell viability was then assessed using the Sunrise microplate reader under the light absorbance at 450 nm (TECAN, CH).

[7] = tested on: TRPV3, IL-6, TNF-α, and p-P65 protein expressions; test: Western blot of TRPV3 and NF-κB pathway proteins in mouse ear tissues; assay type: in vivo; details: mouse ear tissues treated with 3% Car; day 5
Method: as §3
Skin or ear skin tissues were homogenized in radioimmunoprecipitation assay buffer (Thermo Fisher Scientific) containing protease inhibitors at a ratio of 100:1 per 10 mg tissue and centrifuged at 15,000 rpm for 15 min. The protein concentration was quantified using a bicinchoninic acid kit (Thermo Fisher Scientific), followed by SDS-PAGE for Western blot analysis. Protein transfer was performed at 150 mA for 90 min, and the transferred membranes (Millipore) were incubated with primary antibodies (TRPV3 antibody, 1:1000, TNF-α antibody, 1:1000, IL-6 antibody, 1:2500, P65 antibody, 1:1000 and p-P65 antibody, 1:1000) in 5% skim milk (Becton, Dickinson and Company). […] Images were quantified using the Image Lab software (https://www.bio-rad.com/zh-cn/product/image-lab-software?ID=KRE6P5E8Z).

[8] = inhibitor 20 μM added 1 h before Car 300 μM
[9] = topical JSH-23 20 μM in 100 μl coapplied with Car for consecutive 4 days, mouse dorsal skin

O=C(/C=C/c1ccc(O)c(O)c1)NCCc1ccc(O)c(O)c1 [CADA, (E)-3-(3,4-dihydroxyphenyl)-N-(2-(3,4-dihydroxyphenyl)ethyl)-2-propenamide]
inhibition at 50 µM (hTRPV3 [1]): ~40.1% | IC50 (hTRPV3 [1]): 67.7 ± 22.4 µM

Cc1ccc(NCCCc2ccccc2)c(N)c1 [JSH-23]
cell death ratio ([2]; inhibitor 5 μM added 1 h before Car 300 μM): 21% | cell death ratio [2, 8]: 17% | green fluorescence of live cells [3]: robust green fluorescence | dermatitis scores [4, 9]: reduction of dermatitis scores | dorsal skin inflammation [4, 9]: significant alleviation of the dorsal skin inflammation | IC50 (NF-κB p-P65): 7.1 µM

NCCOB(c1ccccc1)c1ccccc1 [2-APB, 2-aminoethoxydiphenyl borate, reference compound]
single-channel open probability, agonist alone (hTRPV3 [5]): 0.67 ± 0.05

Cc1ccc(C(C)C)cc1O [Car, carvacrol, reference compound]
cell death ratio, Car alone ([2]; Car 300 μM for 1 h, vehicle control 8%): 30% | ear skin inflammation, thickness and ear swelling scores, Car alone ([4]; topical Car for consecutive 4 days, WT mice): ear skin inflammation with significantly increased thickness and ear swelling scores | viability at 1 h, 300 μM [6]: 72% | single-channel open probability, agonist alone (hTRPV3 [5]): 0.77 ± 0.09 | protein expressions of TRPV3, IL-6, TNF-α, and p-P65, Car alone [7]: upregulated

COC(=O)[C@@H](Cc1ccc(O)c(O)c1)OC(=O)/C=C/c1ccc(O)c(O)c1 [MROSA, methyl rosmarinate]
inhibition at 50 µM (hTRPV3 [1]): 9 ± 5.2% | IC50 (hTRPV3 [1]): 157 ± 34.5 µM

N.N.N.N.N.N.N.N.N.N.N.N.N.N.[Cl-].[Cl-].[Cl-].[Cl-].[Cl-].[Cl-].[O-2].[O-2].[Ru+3].[Ru+3].[Ru+4] [RR, ruthenium red]
cell death ratio [2, 8]: 23% | green fluorescence of live cells [3]: robust green fluorescence
